Tests used:
Hepatitis C virus [1] = assay: Antiviral activity against Hepatitis C virus genotype 1b in luciferase encoding genotype 1b replicons after 3 days by luciferase reporter assay; type: functional, organism-based, Hepacivirus hominis; conditions: 72 h
Hepatitis C virus [2] = assay: Antiviral activity against Hepatitis C virus genotype 1a in luciferase encoding genotype 1a replicons after 3 days by luciferase reporter assay; type: functional, organism-based, Hepacivirus hominis; conditions: subtype 1a, 72 h

EC50 (Hepatitis C virus [1]) [nM] | Compound | EC50 (Hepatitis C virus [2]) [nM]
618 | C[C@@]1(O)[C@H](O)[C@@H](CO)O[C@H]1n1cnc2c(N)ncnc21 | 733
 | COc1ccc2c(O[C@@H]3C[C@H]4C(=O)N[C@]5(C(=O)O)C[C@H]5/C=C\CCCCC[C@H](NC(=O)OC5CCCC5)C(=O)N4C3)cc(-c3csc(NC(C)C)n3)nc2c1 [CILUPREVIR] | 17
1690 | CCC[C@H](NC(=O)[C@@H]1[C@H]2CCC[C@H]2CN1C(=O)[C@@H](NC(=O)[C@@H](NC(=O)c1cnccn1)C1CCCCC1)C(C)(C)C)C(=O)C(=O)NC1CC1 [TELAPREVIR] | 1250

Compound | EC50 (Hepatitis C virus [1]) [nM] | EC50 (Hepatitis C virus [2]) [nM]
CNC(=O)c1c(-c2ccc(F)cc2)oc2cc(N(CCO)S(C)(=O)=O)c(C3CC3)cc12 [NESBUVIR] | 22 | 45
